We go through five compounds from article PMC7830897 (Viruses, 2021).

The conditions of data set [1]: human, 10 µM.
For data set [2] the following is noted: cited from earlier work.
For data set [3], the system named is HBV. Briefly: Antiviral efficacy in nude mice bearing HBV transfected AD38 xenografts. Type of data set: in vivo. The settings on record: for difference in T/V ratios (HBV titers) versus no-drug / placebo control group: day 45.
For data set [4] the following is noted: cynomolgus monkey plasma (1 donor), 10 µM.
The conditions of data set [5]: 2% FBS (used to measure potency in vitro), 10 µM.
The conditions of data set [6]: Centrifree ultrafiltration device.
Data set [7] concerns HBV. On the set-up: method as in earlier work. The settings on record: 2% FBS, cited from earlier work.
On the set-up of data set [8]: method as in earlier work. The note with it: CD-1 mice, cited from earlier work.
The conditions of data set [9]: humanized mice, 60 mg/kg per day PO for 10 weeks; cited from earlier work.
Data set [10] is described as follows: Single-dose plasma pharmacokinetics in male cynomolgus monkeys. The settings on record: for AUCtotal: mean n = 3, extrapolated; for t1/2: mean n = 3, terminal.
The test system of data set [11] is human cardiomyocytes. Briefly: Human cardiomyocyte function (video-based contractility analysis). It is filed as cell-based. The settings on record: 50 µM.
[12] abbreviates: eight of the ten mice, GLP-26 55 mg/kg 3 times per week via feeding tube, to day 45.
Where [13] appears, read: 1 mg/kg IV infusion, mean n = 3.

Where “and” joins values, the source holds several entries; their conditions need not be identical. Equal entries are not always repeated. Entries after “also recorded” stand apart in the source; their conditions may differ. Where two headings read alike, the source gives them in different places. Where only a bound is given, the exact number is not on record here.

Take `Cc1cccc(C)c1OCC(=O)N[C@@H](Cc1ccccc1)[C@@H](O)C[C@H](Cc1ccccc1)NC(=O)[C@H](C(C)C)N1CCCNC1=O` [lopinavir]: the “percent bound in plasma” value in data set [1] is 97.9%.

For `Nc1nc(=O)n([C@@H]2CS[C@H](CO)O2)cc1F` [emtricitabine], the “percent bound in plasma” value in data set [1] was determined as 0.8%. Besides, in [2], the “percent bound (reported)” value is reported as < 4%.

By EC50 is commonly meant the concentration at which the effect is half-maximal. As a reminder, the EC90 is the concentration at which the effect reaches the 90% level. As a reminder, the Cmax is the peak of the concentration-time curve. For orientation: MRT means a mean duration of stay, worked out from the concentration-time curve. By Tmax is commonly meant the time from dosing to the highest level. On to `C#CCNC(=O)C(=O)c1c(C)c(C(=O)Nc2ccc(F)c(F)c2)n(C)c1C` [GLP-26], for which, in data set [3], the “difference in T/V ratios (HBV titers) versus no-drug / placebo control group” value was found to be 2.5 log10. Moreover, in data set [3] (setting [12]), the “mean rebound in T/V” value is 13.8 fold and the “mean rebound in T/V (log10)” value turned out to be 1.14 log10. The “percent bound in plasma” value in data set [4] was determined as 86.7%. The “percent bound in 2% FBS” value in data set [5] is given as 17.9%. Besides, in data set [6], the non-specific adsorption entry is “approximately 2.6%”. In data set [7] (converted from nM), the “in vitro EC50 versus HBV” value is ~ 1.1 ng/mL and the “in vitro EC90 versus HBV” value is ~ 11 ng/mL. Further, the EC50 in data set [7] (read-out: in vitro EC50 versus HBV) was 3 nM. Moreover, the EC90 in data set [7] (read-out: in vitro EC90 versus HBV) is 30 nM. Besides, the “terminal t1/2” value in data set [8] (IV 15 mg/kg) is on record as 1.6 h. For the same compound, the PO bioavailability in data set [8] (PO 30 mg/kg, IV 15 mg/kg) is 61%. Moreover, the “terminal t1/2” value in data set [8] (PO 30 mg/kg) was > 6 h. The tolerability result in [9] was “safely administered”. Besides, in [10] (setting [13]), the AUMC is given as 1058 ng·mL^−1·h^2, the CL was 1.106 L·h/kg, the Cmax came to 2513 ng/mL and the MRT is reported as 1.2 h. Further, in data set [10] (setting [13]), the Tmax turned out to be 24 min and the Vss is 1.065 Lkg^−1. In addition, in [10] (1 mg/kg IV infusion), the AUCtotal is 986.6 ± 316.5 ng·h/mL and 986.6 ng·h/mL; the t1/2 is reported as 0.77 h. Besides, in data set [10] (5 mg/kg PO), the “Cmax relative to in vitro EC50 versus HBV” value was ~ 30 times; the AUCtotal is 1660 ng·h/mL and 1660 ± 530 ng·h/mL; the t1/2 was 2.4 h and 2.44 h. Moreover, in [10] (5 mg/kg PO, mean n = 3), the AUMC was determined as 7435 ng·mL^−1·h^2, the Cmax was determined as 380.7 ng/mL, the MRT came to 4.19 h and the Tmax was found to be 40.2 min. Moreover, in [10] (single IV (1 mg/kg) or PO (5 mg/kg) doses), the “signs of toxicity in monkeys” value is “appeared healthy prior to dosing and throughout the duration of the study; also recorded: No signs of toxicity were observed”.

Regarding `C=C1[C@H](CO)[C@@H](O)C[C@@H]1n1cnc2c(=O)[nH]c(N)nc21` [ETV, entecavir, reference compound], the “difference in T/V ratios (HBV titers) versus no-drug / placebo control group” value in [3] came to 3 log10.

For the compound `COc1nc(N)nc2c1ncn2[C@@H]1O[C@H](COP(=O)(N[C@@H](C)C(=O)OCC(C)(C)C)Oc2cccc3ccccc23)[C@@H](O)[C@@]1(C)O` (stereo partly drawn) [BMS-986094], in data set [11], the “resumption of cardiomyocyte beating” value was “resumed after 8 h with an unstable rhythm” and the “time until cardiomyocyte beating stopped” value is recorded as ≤ 2 h.
